Reference: patent US20250228824A1, “COMPOSITIONS AND METHODS FOR INHIBITION OF ITO AS TREATMENT FOR THE J WAVE SYNDROMES AND HYPOTHERMIA” (Lankenau Institute for Medical Research, priority 2021, published 2025)

Tests used:
[1] = system: coronary-perfused canine right ventricular (RV) wedge models of JWS, hypothermia; test: Coronary-perfused RV wedge model of hypothermia (NS5806 plus decreasing temperature); details: NS5806 2 μM, 32.7±0.5° C., AR-787 10 μM, 20 min
Protocol: Transmural wedges were dissected from the base of the RV and LV. During the cannulation procedure, preparations were initially arterially perfused with cardioplegic solution. Next, the wedge preparations were placed in a tissue bath and perfused with a modified Krebs-Henseleit solution (K—H) bubbled with 95% O2/5% CO2 warmed to 37° C. The composition of K—H was (in mM): 118 NaCl, 4 KCl, 2 CaCl2, 1.2 MgSO4, 24 NaHCO3, 1.2 NaH2PO4, 2 Na Pyruvate and 10 D-Glucose. The perfusate was delivered at a constant pressure (45-50 mmHg). A transmural pseudo-ECG (ECG) was recorded using two Ag/AgCl half cells placed at ˜1 cm from the Epi (+) and Endo (−) surfaces along the same axis as the transmembrane action potential (AP) recordings. APs were simultaneously recorded from the immediate sub-Epi and M cell region (˜2-3 mm from the Endo surface) using floating glass microelectrodes. […] A detailed description of the arterially-perfused ventricular wedge preparation has been previously published.^5 ECG and AP signals were digitized and analyzed using Spike 2 for Windows (Cambridge Electronic Design, Cambridge, UK). […]
FIG. 9A-9C show the ability of AR-787 to suppress the ECG and arrhythmic manifestations in a model of hypothermia. […] The third grouping was recorded 10 minutes after lowering the temperature of the perfusate to 32.7±0.5° C. […] The fourth column was recorded 20 min after addition of AR-787 (10 μM).

Nav1.5 (peak INa) = biological target: T1, Nav1.5 (peak INa) (Homo sapiens, UniProt Q14524); test: Automated patch clamp (Qube-384) of INa in HEK cells transfected with SCN5A+SCN1B; assay type: cell-based; details: human, pH 7.4; 50 μM; holding potential −90 mV
T1 construct: expressed in transfected cells; host or cells: HEK cells, transfected with Lipofectamine 2000
T1 sequence (Q14524 whole entry): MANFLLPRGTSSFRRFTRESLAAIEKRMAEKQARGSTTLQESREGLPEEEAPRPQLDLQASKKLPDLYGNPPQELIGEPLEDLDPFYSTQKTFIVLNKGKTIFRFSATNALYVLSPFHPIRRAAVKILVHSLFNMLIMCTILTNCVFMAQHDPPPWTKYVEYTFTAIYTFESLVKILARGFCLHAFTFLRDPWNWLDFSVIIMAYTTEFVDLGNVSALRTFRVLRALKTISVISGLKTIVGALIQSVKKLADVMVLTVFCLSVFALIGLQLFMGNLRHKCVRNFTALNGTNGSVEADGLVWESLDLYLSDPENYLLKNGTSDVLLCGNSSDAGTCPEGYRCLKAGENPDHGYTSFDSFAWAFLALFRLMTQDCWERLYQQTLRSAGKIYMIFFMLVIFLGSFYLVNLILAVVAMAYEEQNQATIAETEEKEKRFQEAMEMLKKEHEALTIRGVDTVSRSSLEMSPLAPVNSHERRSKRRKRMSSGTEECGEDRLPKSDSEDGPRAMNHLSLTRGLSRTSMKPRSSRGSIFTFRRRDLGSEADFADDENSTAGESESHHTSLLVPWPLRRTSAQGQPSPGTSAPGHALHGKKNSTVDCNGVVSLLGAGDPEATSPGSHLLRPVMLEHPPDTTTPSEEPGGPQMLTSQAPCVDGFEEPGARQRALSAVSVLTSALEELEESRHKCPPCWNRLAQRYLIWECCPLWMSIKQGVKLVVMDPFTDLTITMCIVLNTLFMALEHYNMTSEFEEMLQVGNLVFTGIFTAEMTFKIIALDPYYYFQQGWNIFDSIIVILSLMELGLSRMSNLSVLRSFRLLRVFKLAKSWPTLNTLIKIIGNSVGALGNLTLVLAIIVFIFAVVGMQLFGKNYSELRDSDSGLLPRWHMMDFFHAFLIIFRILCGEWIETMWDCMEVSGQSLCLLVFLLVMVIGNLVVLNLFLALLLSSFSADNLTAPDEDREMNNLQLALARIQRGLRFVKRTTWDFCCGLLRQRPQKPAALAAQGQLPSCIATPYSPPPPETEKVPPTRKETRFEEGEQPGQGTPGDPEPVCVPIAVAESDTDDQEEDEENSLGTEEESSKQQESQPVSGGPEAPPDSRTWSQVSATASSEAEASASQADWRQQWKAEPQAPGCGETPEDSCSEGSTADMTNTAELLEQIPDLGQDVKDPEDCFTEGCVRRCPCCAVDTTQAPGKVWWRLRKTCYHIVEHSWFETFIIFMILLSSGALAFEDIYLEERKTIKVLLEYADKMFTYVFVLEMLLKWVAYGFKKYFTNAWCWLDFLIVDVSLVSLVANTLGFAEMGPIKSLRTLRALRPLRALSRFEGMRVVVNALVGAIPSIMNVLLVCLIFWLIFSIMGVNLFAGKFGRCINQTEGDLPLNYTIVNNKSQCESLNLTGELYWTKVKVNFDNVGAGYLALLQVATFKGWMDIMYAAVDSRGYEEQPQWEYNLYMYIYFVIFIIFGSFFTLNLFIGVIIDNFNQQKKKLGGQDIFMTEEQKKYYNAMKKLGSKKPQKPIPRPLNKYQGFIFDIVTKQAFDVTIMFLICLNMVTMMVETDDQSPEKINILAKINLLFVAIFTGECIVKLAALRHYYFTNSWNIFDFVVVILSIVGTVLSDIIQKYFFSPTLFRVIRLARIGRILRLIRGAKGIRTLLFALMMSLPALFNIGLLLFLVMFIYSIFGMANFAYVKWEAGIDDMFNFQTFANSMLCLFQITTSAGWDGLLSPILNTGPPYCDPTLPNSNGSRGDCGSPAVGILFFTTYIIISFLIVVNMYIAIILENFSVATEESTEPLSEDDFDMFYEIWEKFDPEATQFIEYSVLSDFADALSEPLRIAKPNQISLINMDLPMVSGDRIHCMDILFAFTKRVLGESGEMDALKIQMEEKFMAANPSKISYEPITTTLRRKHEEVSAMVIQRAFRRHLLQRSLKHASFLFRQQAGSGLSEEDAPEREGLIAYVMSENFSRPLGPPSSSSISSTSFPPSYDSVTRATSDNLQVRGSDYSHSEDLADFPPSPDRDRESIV
T1 sequence (Q07699 19-218 partner): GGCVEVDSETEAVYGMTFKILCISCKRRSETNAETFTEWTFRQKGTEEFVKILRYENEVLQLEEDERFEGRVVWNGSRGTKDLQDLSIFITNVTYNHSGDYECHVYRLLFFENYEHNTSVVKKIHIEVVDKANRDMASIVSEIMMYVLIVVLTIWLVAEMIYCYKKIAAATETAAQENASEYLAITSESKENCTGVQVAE
Protocol: (§1) HEK cells transiently transfected with wild-type SCN5A (α subunit—Nav1.5) together with SCN1B (β1 subunit) using Lipofectamine 2000 were used to assess the effect of AR-787 on the cardiac sodium channel current (INa). All cells were incubated at 37° C./5% CO2. All cell culture reagents were purchased from Thermo Fisher Scientific (Waltham, MA).
(§2) The effect of AR-787 on cardiac sodium channel current was evaluated in HEK cells co-transfected with SCN5A and SCN1B. INa was measured in the whole-cell configuration using a Qube-384 (Sophion A/S, Copenhagen, Denmark) automated voltage clamp system. A flipped Na^+ gradient was used where the extracellular solution contained (in mM): 125 choline chloride, 1 NaCl, 5 KCl, 2 CaCl2, 1 MgCl2, 10 HEPES/NaOH, pH 7.4 (adjusted with NaOH), and the intracellular solution contained (in mM): 115 NaF, 15 CsCl2, 5 CsF, 3 Na2ATP, 0.3 Na2GTP, 2 MgCl2, 0.1 CaCl2, 10 EGTA, and 10 HEPES/CsOH, pH 7.2 (adjusted with NaOH). The currents were low-pass-filtered at 5 kHz and recorded at 25 kHz sampling frequency. Series resistance compensation was applied at 100%, and leak subtraction was enabled. Experiments were performed at room temperature (27° C.). Appropriate filters for cell membrane resistance (typically >500 MΩ), series resistance (<10 MΩ), and Nav current magnitude (>500 pA at a test pulse from a resting holding potential of −120 mV) were routinely applied to exclude poor quality cells. Vehicle (0.5% DMSO) controls were run on each plate to enable correction for any compound independent decrease of currents over time.
(§3) We used a double voltage-pulse protocol designed specifically to assess whether the compound is a potentiator, inhibitor, or both. The protocol assesses these parameters at both rest and partially inactivated holding potentials. Currents were assessed by a test pulse of 0 mV from a holding potential at rest (−120 mV) before preconditioning channels to their appropriate mid-potential (V1/2) values (NaV1.5 V1/2=−90 mV) for 10 s. Peak current, time constant of inactivation (τ inactivation) and persistent current were measured.
(§4) Time constants (τ) for fast inactivation onset were derived by fitting a single exponential function to the decay of current obtained from the depolarizing test pulse following a holding potential of −120 mV.
(§5) where I is current amplitude, Iss is the plateau amplitude, α is the amplitude at time 0 for time constant τ, and t is time. Persistent sodium current was measured during a 10 ms test pulse from −120 mV to 0 mV. It was calculated as a percentage of peak sodium current at 5 ms.

Nav1.5 = biological target: T2, Nav1.5 (Homo sapiens, UniProt Q14524); test: as above; assay type: cell-based
T2 construct: expressed in transfected cells; host or cells: HEK cells, transfected with Lipofectamine 2000
T2 sequence (Q14524 whole entry): as the sequence (Q14524 whole entry) above
T2 sequence (Q07699 19-218 partner): as the sequence (Q07699 19-218 partner) above
Protocol: as §1, §2, §3, §4, §5

[2] = 50 μM, holding potential −120 mV
[3] = 50 μM, mid-voltage holding potential (NaV1.5 V1/2 = −90 mV)

SMILES: Cc1nc(-n2cccc2)sc1C(=O)N=c1[nH]c2ccccc2[nH]1 [AR-787, N-(1H-benzimidazol-2-yl)-4-methyl-2-pyrrol-1-yl-thiazole-5-carboxamide]
- hypothermia-induced AP notch, J wave, phase 2 reentry and pVT [1]: diminished the action potential (AP) notch and J wave
- inhibition at 50 µM (Nav1.5 (peak INa)): 80%
- Normalized AUC (Nav1.5; 50 μM): 1.03 ± 0.06
- reduction of INa (Nav1.5; 50 μM, 0 mV test pulse from holding potential −120 mV): ~32%
- deceleration of fast inactivation kinetics (Nav1.5; 50 μM, holding potential −90 mV): this effect was abolished
- Normalized Inhibition (−120 mV) (Nav1.5; [2]): 0.32 ± 0.03
- Normalized τinactivation (−120 mV) (Nav1.5; [2]): 1.45 ± 0.07
- deceleration of fast inactivation kinetics (Nav1.5; [2]): ~1.5 fold
- Normalized Inhibition (−65 mV and −90 mV) (Nav1.5; [3]): 0.78 ± 0.02
- Normalized τinactivation (−65 mV and −90 mV) (Nav1.5; [3]): 1.11 ± 0.10
- Normalized Persistent Current (5 ms) (Nav1.5; 50 μM, percentage of peak sodium current at 5 ms, from −120 mV to 0 mV): 10.44 ± 3.30
- increase of late INa (persistent sodium current, percent of peak current) (Nav1.5; at 5 ms of a 10 ms depolarization to 0 mV from −120 mV): ~10%
